According to paper PMC11995724, “Antibiotic target discovery by integrated phenotypic and activity-based profiling of electrophilic fragments” (Cell chemical biology, 2025):

Assay: in vitro
Settings: human, hek293t cells
Description: Mammalian cytotoxicity measurement was performed using Cell Titer-Glo 2.0 Cell Viability Assay (Promega, G9243) according to the manufacturer protocol. In brief, mammalian cells were seeded into 384-well white plates (Greiner, 781080) and incubated at 37°C for one day. Compounds from the Cys-Library were dispensed into the assay plate using epMotion 96. The plates were then incubated at 37°C for two days. An equal volume of Cell Titer-Glo 2.0 reagent was added into each well of the assay plate using epMotion 96 and incubated at 22°C for 10 min, followed by luminescence measurement using a Cytation 5 plate reader (BioTek).

First: CC(Cl)C(=O)NCC(=O)N(C)Cc1cccnc1 (centres unmarked) [7-P15, 2-chloro-N-({methyl[(pyridin-3-yl)methyl]carbamoyl}methyl)propanamide]
Second: CN(CCc1ccccc1O)C(=O)CCl [7-P21, 2-chloro-N-[2-(2-hydroxyphenyl)ethyl]-N-methylacetamide]
The viability at 48 h, 25 µM of the first is higher: 91.3% for the first, -0.172% for the second.

Compared with `O=C(CCl)N[C@H]1CCN(S(=O)(=O)c2ccccc2)C1` [7-P16, N-[(3S)-1-(benzenesulfonyl)pyrrolidin-3-yl]-2-chloroacetamide], `O=C(CCl)NCC(F)(F)c1cc(-c2ccccc2)n[nH]1` [7-P20, 2-chloro-N-[2,2-difluoro-2-(3-phenyl-1H-pyrazol-5-yl)ethyl]acetamide] is higher in viability at 48 h, 25 µM: 0.479% for the first, 0.938% for the second.

Going from `Cc1cc(C)n(CC2CCN(C(=O)C(C)Cl)CC2)n1` (centres unmarked) [7-P17, 2-chloro-1-{4-[(3,5-dimethyl-1H-pyrazol-1-yl)methyl]piperidin-1-yl}propan-1-one] to `Cc1nn(CC(C)C)c(Cl)c1C1CCCN1C(=O)C(C)Cl` (centres unmarked) [7-P19, 2-chloro-1-{2-[5-chloro-3-methyl-1-(2-methylpropyl)-1H-pyrazol-4-yl]pyrrolidin-1-yl}propan-1-one], the viability at 48 h, 25 µM falls from 79.8% to 78%.

First: CC(c1ccc(C(F)(F)F)cc1F)N(C)C(=O)CCl (centres unmarked) [7-P18, 2-chloro-N-{1-[2-fluoro-4-(trifluoromethyl)phenyl]ethyl}-N-methylacetamide]
Second: COc1ccc(C=C(C#N)C(=O)Nc2cccc(C(F)(F)F)c2)cc1 [8-A03, 2-cyano-3-(4-methoxyphenyl)-N-[3-(trifluoromethyl)phenyl]prop-2-enamide]
The viability at 48 h, 25 µM of the first is lower: 0.35% for the first, 72.2% for the second.

First: CC(Cl)C(=O)N1CCN(C(C)c2cccc(C#N)c2)CC1 (centres unmarked) [7-P22, 3-{1-[4-(2-chloropropanoyl)piperazin-1-yl]ethyl}benzonitrile]
Second: CC(C)NC(=O)C(C#N)=Cc1cccc(O)c1 [8-A22, 2-cyano-3-(3-hydroxyphenyl)-N-(propan-2-yl)prop-2-enamide]
The viability at 48 h, 25 µM of the first is lower: 66.4% for the first, 67.3% for the second.

First: N#CC(=Cc1cccs1)C(=O)Nc1ccc(C(=O)O)cc1 [8-A04, 4-[2-cyano-3-(thiophen-2-yl)prop-2-enamido]benzoic acid]
Second: CCc1ccc(NC(=O)C(C#N)=Cc2cccn2C)cc1 [8-A20, 2-cyano-N-(4-ethylphenyl)-3-(1-methyl-1H-pyrrol-2-yl)prop-2-enamide]
The viability at 48 h, 25 µM of the first is higher: 71.7% for the first, 58.7% for the second.

Going from `COc1ccc(C=C(C#N)C(=O)Nc2ccccc2)cc1` [8-A05, 2-cyano-3-(4-methoxyphenyl)-N-phenylprop-2-enamide] to `COc1ccc(-c2n[nH]cc2C=C(C#N)C(=O)Nc2ccccc2)cc1` [8-A14, 2-cyano-3-[3-(4-methoxyphenyl)-1H-pyrazol-4-yl]-N-phenylprop-2-enamide], the viability at 48 h, 25 µM falls from 76.8% to 76.6%.

Compared with `Cc1ccc(C=C(C#N)C(=O)Nc2ccc(N3CCOCC3)cc2)s1` [8-A06, 2-cyano-3-(5-methylthiophen-2-yl)-N-[4-(morpholin-4-yl)phenyl]prop-2-enamide], `CCOc1ccccc1C=C(C#N)C(=O)Nc1ccc(Cl)cc1` [8-B09, N-(4-chlorophenyl)-2-cyano-3-(2-ethoxyphenyl)prop-2-enamide] is higher in viability at 48 h, 25 µM: 76.2% for the first, 82.9% for the second.

Compared with `CCOc1ccc(C=C(C#N)C(=O)Nc2cccc3ncccc23)cc1` [8-A07, 2-cyano-3-(4-ethoxyphenyl)-N-(quinolin-5-yl)prop-2-enamide], `Cc1cccc(C)c1NC(=O)C(C#N)=Cc1ccc(OC(F)F)cc1` [8-A11, 2-cyano-3-[4-(difluoromethoxy)phenyl]-N-(2,6-dimethylphenyl)prop-2-enamide] is lower in viability at 48 h, 25 µM: 60.7% for the first, 56.3% for the second.

First: N#CC(=Cc1cnn(-c2ccc(Cl)cc2)c1)C(=O)NC1CCCCC1 [8-A08, 3-[1-(4-chlorophenyl)-1H-pyrazol-4-yl]-2-cyano-N-cyclohexylprop-2-enamide]
Second: N#CC(=Cc1ccc([N+](=O)[O-])c(Cl)c1)C(=O)NC1CCCCC1 [8-B08, 3-(3-chloro-4-nitrophenyl)-2-cyano-N-cyclohexylprop-2-enamide]
The viability at 48 h, 25 µM of the first is higher: 60.6% for the first, 0.92% for the second.

Going from `N#CC(=Cc1ccc2c(c1)OCO2)C(=O)NCc1ccccc1` [8-A09, 3-(1,3-dioxaindan-5-yl)-N-benzyl-2-cyanoprop-2-enamide] to `N#CC(=Cc1ccc(Cl)c(Cl)c1)C(=O)NCc1ccccc1` [8-B07, N-benzyl-2-cyano-3-(3,4-dichlorophenyl)prop-2-enamide], the viability at 48 h, 25 µM rises from 85.6% to 105%.

First: Cc1cc(C)c(NC(=O)C(C#N)=Cc2cc(F)ccc2F)c(C)c1 [8-A10, 2-cyano-3-(2,5-difluorophenyl)-N-(2,4,6-trimethylphenyl)prop-2-enamide]
Second: COc1cc(C=C(C#N)C(=O)Nc2c(C)cc(C)cc2C)cc(OC)c1 [8-A18, 2-cyano-3-(3,5-dimethoxyphenyl)-N-(2,4,6-trimethylphenyl)prop-2-enamide]
The viability at 48 h, 25 µM of the first is lower: 2.85% for the first, 26.3% for the second.

Compared with `N#CC(=Cc1cc(F)ccc1F)C(=O)Nc1cc(Cl)ccc1Cl` [8-A12, 2-cyano-N-(2,5-dichlorophenyl)-3-(2,5-difluorophenyl)prop-2-enamide], `N#CC(=Cc1ccc(O)c(O)c1)C(=O)Nc1ccccc1F` [8-B05, 2-cyano-3-(3,4-dihydroxyphenyl)-N-(2-fluorophenyl)prop-2-enamide] is higher in viability at 48 h, 25 µM: 61% for the first, 92.9% for the second.

Going from `Cc1c(C=C(C#N)C(=O)Nc2ccccc2F)cc(C#N)n1C` [8-A13, 2-cyano-3-(5-cyano-1,2-dimethyl-1H-pyrrol-3-yl)-N-(2-fluorophenyl)prop-2-enamide] to `Cc1ccccc1NC(=O)C(C#N)=Cc1cc(C)n(C2CC2)c1C` [8-A16, 2-cyano-3-(1-cyclopropyl-2,5-dimethyl-1H-pyrrol-3-yl)-N-(2-methylphenyl)prop-2-enamide], the viability at 48 h, 25 µM falls from 83.9% to 47.1%.

Compared with `N#CC(=Cc1ccccc1)C(=O)Nc1ccccc1-c1ccccc1` [8-A15, N-{[1,1'-biphenyl]-2-yl}-2-cyano-3-phenylprop-2-enamide], `N#CC(=Cc1cccc(F)c1F)C(=O)NCc1ccccc1` [8-B06, N-benzyl-2-cyano-3-(2,3-difluorophenyl)prop-2-enamide] is lower in viability at 48 h, 25 µM: 90.1% for the first, 27.1% for the second.

Going from `COc1ccc(C=C(C#N)C(=O)Nc2c(C)cccc2C)cc1OC` [8-A17, 2-cyano-3-(3,4-dimethoxyphenyl)-N-(2,6-dimethylphenyl)prop-2-enamide] to `COc1cc(Cl)c(C)cc1NC(=O)C(C#N)=CC=Cc1ccccc1` [8-A21, N-(4-chloro-2-methoxy-5-methylphenyl)-2-cyano-5-phenylpenta-2,4-dienamide], the viability at 48 h, 25 µM falls from 82.9% to 82%.

Going from `COc1cccc(NC(=O)C(C#N)=Cc2ccc([N+](=O)[O-])o2)c1` [8-A19, 2-cyano-N-(3-methoxyphenyl)-3-(5-nitrofuran-2-yl)prop-2-enamide] to `N#CC(=Cc1ccc2c(c1)OCCO2)C(=O)Nc1nccs1` [8-B03, 2-cyano-3-(2,3-dihydro-1,4-benzodioxin-6-yl)-N-(1,3-thiazol-2-yl)prop-2-enamide], the viability at 48 h, 25 µM rises from 72.4% to 115%.

Compound `COCC(C)n1c(C)cc(C=C(C#N)C(=O)NS(C)(=O)=O)c1C` (centres unmarked) [8-B04, 2-cyano-N-methanesulfonyl-3-[1-(1-methoxypropan-2-yl)-2,5-dimethyl-1H-pyrrol-3-yl]prop-2-enamide] has a viability at 48 h, 25 µM of 94.8%.
